Patent US20260103471A1, “CYCLIC UREA THIAZOLYL COMPOUNDS FOR TREATMENT OF HSV” (Assembly Biosciences, Inc., priority 2022, published 2026)

test system: HSV-2 G strain; experiment: HSV-2 Antiviral Assay (Vero cells, cell viability); type: cell-based; conditions: Human alphaherpesvirus 2, Vero, 120 h, Vero cells, 160 TCID50 HSV-2 G strain, 5 days, cell viability
Protocol: Vero cells were cultured in Dulbecco's Modified Eagle Medium (DMVEM) supplemented with […] and 100 units/mL penicillin and streptomycin. The cells were passaged 2-3 times per week to maintain sub-confluent densities.
Vero cells were seeded into 96-well plates at a density of 1.0×10^4 cells per well and allowed to attach overnight. Following attachment, the media was replaced with 50 μL of infection medium (DMEM supplemented with 2% fetal bovine serum and 100 units/mL penicillin and streptomycin). A Tecan D300e digital dispenser was then used to add compounds to the culture using an 8-point 3-fold serial dilution format. The DMSO concentration was normalized to 0.5% for all treatments. Following compound addition, 50 μL of infection medium containing 160 TCID50 HSV-2 G strain was added to the cells and incubated at 37° C. for 5 days. After the incubation, 10 μL/well of WST-8 chromogenic reagent was added and the plates incubated at 37° C. for 3 hours. Following the incubation, cell viability was quantified by measuring the absorbance at 460 nm and 620 nm using a Tecan Infinite M1000 Pro plate reader.

| Compound | EC50 |
| --- | --- |
| Cc1nc(N2CCCN(c3ccc(-c4cc(C#N)cc5c4ccn5C)cc3)C2=O)sc1S(N)(=O)=O [Compound 302] | 100 to 1000 nM |
| Cc1nc(N2CCCN(c3ccc(-c4ccccc4/C=C/C#N)cc3)C2=O)sc1S(N)(=O)=O [Compound 20] | 100 to 1000 nM |
| CSc1ccc(F)cc1-c1ccc(N2CCCN(c3nc(C)c(S(N)(=O)=O)s3)C2=O)cc1 [Compound 223] | < 100 nM |
| Cc1nc(N2CCCN(c3ccc(-c4cc(Cl)ccn4)cc3)C2=O)sc1S(N)(=O)=O [Compound 185] | < 100 nM |
| Cc1nc(N2CCCN(c3ccc(-c4ccc(C#N)c5nsnc45)cc3)C2=O)sc1S(N)(=O)=O [Compound 286] | 1000 to 5000 nM |
| COc1ccc(-c2ccc(N3CCCN(c4nc(C)c(S(N)(=O)=O)s4)C3=O)cc2)c2cnn(C)c12 [Compound 58] | < 100 nM |
| Cc1nc(N2CCCN(c3ccc(-c4cncc5c4cnn5C)cc3)C2=O)sc1S(N)(=O)=O [Compound 288] | 100 to 1000 nM |
| Cc1nc(N2CCCN(c3ccc(-c4cc(F)cc(C(F)F)c4F)cc3)C2=O)sc1S(N)(=O)=O [Compound 217] | < 100 nM |
| Cc1nc(N2CC3(CC3)CN(c3ccc(-c4ncccc4F)cc3)C2=O)sc1S(N)(=O)=O [Compound 112] | < 100 nM |
| Cc1nc(N2CCCN(c3ccc(-c4ccc(C#N)c5c4ccn5C)cc3)C2=O)sc1S(N)(=O)=O [Compound 300] | 100 to 1000 nM |
| Cc1nc(N2CCCN(c3ccc(-c4cc(C(F)(F)F)cc5c4c(F)cn5C)cc3)C2=O)sc1S(N)(=O)=O [Compound 297] | 100 to 1000 nM |
| Cc1nc(N2CCCN(c3ccc(-c4cc(F)ccc4-c4cncs4)cc3)C2=O)sc1S(N)(=O)=O [Compound 231] | 100 to 1000 nM |
| Cc1nc(N2CCCN(c3ccc(-c4cc(F)cc5cc(C(N)=O)sc45)cc3)C2=O)sc1S(N)(=O)=O [Compound 254] | 100 to 1000 nM |
| Cc1nc(N2CCCN(c3ccc(-c4cc(F)cc5cc(C(C)(C)F)sc45)cc3)C2=O)sc1S(N)(=O)=O [Compound 284] | 100 to 1000 nM |
| Cc1nc(N2CCCN(c3ccc(-c4nc(C#N)cs4)cc3)C2=O)sc1S(N)(=O)=O [Compound 48] | < 100 nM |
| Cc1nc(N2CCCN(c3ccc(-c4cc(F)cc5cc(C#N)sc45)cc3)C2=O)sc1S(N)(=O)=O [Compound 276] | < 100 nM |
| Cc1nc(N2CCCN(c3ccc(-c4snc5ccc(-c6ccccc6)cc45)cc3)C2=O)sc1S(N)(=O)=O [Compound 309] | < 100 nM |
| Cc1nc(N2CCCN(c3ccc(-c4cccc5cc(N)ncc45)cc3)C2=O)sc1S(N)(=O)=O [Compound 268] | < 100 nM |
| Cc1cc(O)cc(-c2ccc(N3CCCN(c4nc(C)c(S(N)(=O)=O)s4)C3=O)cc2)n1 [Compound 238] | 1000 to 5000 nM |
| CN=[S@](C)(=O)c1sc(N2CCCN(c3ccc(-c4cc(F)ccc4F)cc3)C2=O)nc1C (single isomer, unassigned) [Compound 153] | 100 to 1000 nM |
| Cc1nc(N2CCCN(c3ccc(-c4ccccc4C#CC4CC4)cc3)C2=O)sc1S(N)(=O)=O [Compound 220] | < 100 nM |
| Cc1nc(N2CCCN(c3ccc(-c4cc(F)cc5c(C)c(C#N)sc45)cc3)C2=O)sc1S(N)(=O)=O [Compound 280] | 1000 to 5000 nM |
| COc1cc(-c2ccc(N3CCCN(c4nc(C)c(S(N)(=O)=O)s4)C3=O)cc2)c2scnc2c1 [Compound 252] | < 100 nM |
| COc1cc(Cl)c(F)c(-c2ccc(N3CCCN(c4nc(C)c(S(N)(=O)=O)s4)C3=O)cc2)c1 [Compound 218] | < 100 nM |
| Cc1nc(N2CCCN(c3ccc(-c4nccc5c4cnn5C)cc3)C2=O)sc1S(N)(=O)=O [Compound 261] | 100 to 1000 nM |
| Cc1nc(N2CCCN(c3ccc(-c4cc(Cl)c(Cl)cn4)cc3)C2=O)sc1S(N)(=O)=O [Compound 234] | < 100 nM |
| COc1c(F)cc(C#N)cc1-c1ccc(N2CCCN(c3nc(C)c(S(N)(=O)=O)s3)C2=O)cc1 [Compound 226] | 100 to 1000 nM |

The remaining lines, values ahead:

| EC50 | Compound |
| --- | --- |
| < 100 nM | Cc1nc(N2CC(C)CN(c3ccc(-c4ccccc4F)cc3)C2=O)sc1S(N)(=O)=O (stereo not shown) [Compound 315] |
| < 100 nM | Cc1nc(N2CCCN(c3ccc(-c4cc(F)ccc4F)cc3)C2=O)sc1S(=O)(=O)NC[C@@H](C)CO [Compound 395] |
| < 100 nM | Cc1nc(N2C[C@@H](C#N)CN(c3ccc(-c4cc(F)ccc4F)cc3)C2=O)sc1S(N)(=O)=O (single isomer, unassigned) [Compound 362] |
| < 100 nM | Cc1nc(N2CCCCN(c3ccc(-c4cccc5ncsc45)cc3)C2=O)sc1[S@@](C)(=N)=O (single isomer, unassigned) [Compound 429] |
| < 100 nM | CCC[S@](=N)(=O)c1sc(N2CCCN(c3ccc(-c4cc(F)cc(F)c4F)cc3)C2=O)nc1C (single isomer, unassigned) [Compound 425] |
| < 100 nM | COCCNS(=O)(=O)c1sc(N2CCCN(c3ccc(-c4cc(F)ccc4F)cc3)C2=O)nc1C [Compound 387] |
| < 100 nM | COc1ccc(F)cc1-c1ccc(N2CC3(COC3)CN(c3nc(C)c(S(C)(=O)=O)s3)C2=O)cc1 [Compound 435] |
| 1000 to 5000 nM | Cc1nc(N2CC3(CC3)CN(c3ccc(-c4nnco4)cc3)C2=O)sc1S(N)(=O)=O [Compound 335] |
| 1000 to 5000 nM | Cc1nc(N2CCCN(c3ccc(-c4ccccc4)c4sncc34)C2=O)sc1S(N)(=O)=O [Compound 312] |
| 100 to 1000 nM | Cc1nc(N2CCCN(c3ccc(-c4cc(F)ccc4F)cc3)C2=O)sc1S(=O)(=O)NO [Compound 385] |
| < 100 nM | Cc1nc(N2C[C@@H](C(F)F)CN(c3ccc(-c4cc(F)ccc4F)cc3)C2=O)sc1S(N)(=O)=O (single isomer, unassigned) [Compound 370] |
| 1000 to 5000 nM | COC1CN(c2ccc(-c3cc(F)ccc3F)cc2)C(=O)N(c2nc(C)c(S(N)(=O)=O)s2)C1 (stereo not shown) [Compound 357, 2-(3-(2′,5′-difluoro-[1,1′-biphenyl]-4-yl)-5-methoxy-2-oxotetrahydropyrimidin-1(2H)-yl)-4-methylthiazole-5-sulfonamide] |
| < 100 nM | Cc1nc(N2CC(F)(F)CN(c3ccc(-c4cc(F)ccc4F)cc3)C2=O)sc1S(N)(=O)=O [Compound 367] |
| < 100 nM | Cc1nc(N2C[C@H](C(F)F)CN(c3ccc(-c4cc(F)ccc4F)cc3)C2=O)sc1S(N)(=O)=O (single isomer, unassigned) [Compound 350] |
| 100 to 1000 nM | Cc1nc(N2C[C@H](C(N)=O)CN(c3ccc(-c4cc(F)ccc4F)cc3)C2=O)sc1S(N)(=O)=O (single isomer, unassigned) [Compound 382] |
| < 100 nM | Cc1nc(N2CC(C(F)(F)F)CN(c3ccc(-c4cc(F)ccc4F)cc3)C2=O)sc1S(N)(=O)=O (stereo not shown) [Compound 368] |
| < 100 nM | COc1c(F)cc(F)cc1-c1ccc(N2CC(C(F)(F)F)CN(c3nc(C)c(S(N)(=O)=O)s3)C2=O)cc1 (stereo not shown) [Compound 372] |
| < 100 nM | COc1c(F)cc(F)cc1-c1ccc(N2CCCN(c3nc(C(F)(F)F)c(S(N)(=O)=O)s3)C2=O)cc1 [Compound 437] |
| 100 to 1000 nM | Cc1nc(N2CCCN(c3ccc(-c4cc(F)ccc4F)cc3)C2=O)sc1S(=O)(=O)NN [Compound 405] |
| < 100 nM | COc1c(F)cc(F)cc1-c1ccc(N2CC(F)CN(c3nc(C)c(S(N)(=O)=O)s3)C2=O)cc1 (stereo not shown) [Compound 366] |
| < 100 nM | COc1ccc(F)cc1-c1ccc(N2C[C@@H](C)CN(c3nc(C)c(S(N)(=O)=O)s3)C2=O)cc1 (single isomer, unassigned) [Compound 330] |
| 100 to 1000 nM | Cc1nc(N2CCCN(c3ccc(-c4cc(F)ccc4F)cc3)C2=O)sc1S(=O)(=O)N1CC[C@@H](N)C1 [Compound 399] |
